From US20120251551A1, “Substituted (Heteroarylmethyl)thiohydantoins” (BAYER PHARMA AKTIENGESELLSCHAFT, priority 2009, published 2012)
Numbering of substitutions follows the chain as printed.

Assays:
[1] = biological target: T1, human androgen receptor W741L mutant (Homo sapiens, UniProt P10275, W742L); test: Cell-based transactivation assay for human androgen receptor mutant W741L
T1 construct: expressed in transfected cells; host or cells: PC-3 cells, transient transfection with a pSG5-derived plasmid
T1 sequence (P10275 1-920 W742L): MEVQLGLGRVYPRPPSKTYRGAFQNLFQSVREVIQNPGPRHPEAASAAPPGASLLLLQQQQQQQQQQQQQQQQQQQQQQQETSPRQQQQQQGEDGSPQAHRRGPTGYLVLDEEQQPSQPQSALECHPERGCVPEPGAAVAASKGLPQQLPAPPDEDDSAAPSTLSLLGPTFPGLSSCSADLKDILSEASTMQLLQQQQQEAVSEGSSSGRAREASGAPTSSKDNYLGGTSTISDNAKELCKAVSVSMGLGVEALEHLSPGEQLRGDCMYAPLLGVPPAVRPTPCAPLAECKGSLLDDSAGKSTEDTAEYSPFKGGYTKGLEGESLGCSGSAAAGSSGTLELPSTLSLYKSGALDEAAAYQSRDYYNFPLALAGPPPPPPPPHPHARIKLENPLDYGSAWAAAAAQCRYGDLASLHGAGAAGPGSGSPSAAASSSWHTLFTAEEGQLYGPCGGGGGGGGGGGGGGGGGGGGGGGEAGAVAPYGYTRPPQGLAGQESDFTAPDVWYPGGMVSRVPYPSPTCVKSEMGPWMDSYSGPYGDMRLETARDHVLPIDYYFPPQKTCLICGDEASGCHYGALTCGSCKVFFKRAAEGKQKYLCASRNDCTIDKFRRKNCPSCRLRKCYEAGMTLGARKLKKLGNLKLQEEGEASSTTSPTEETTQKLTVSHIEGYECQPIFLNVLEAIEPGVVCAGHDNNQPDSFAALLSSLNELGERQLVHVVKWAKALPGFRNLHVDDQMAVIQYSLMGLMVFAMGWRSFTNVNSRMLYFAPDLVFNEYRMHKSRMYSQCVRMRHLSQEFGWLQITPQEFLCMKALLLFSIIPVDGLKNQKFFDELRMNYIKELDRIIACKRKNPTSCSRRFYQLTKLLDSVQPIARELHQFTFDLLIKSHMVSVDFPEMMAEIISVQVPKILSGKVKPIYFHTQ
Protocol: Cell-Based Transactivation Assay for Human Androgen Receptor Mutant W741L or W741C
PC-3 cells (Kaighn et al., Invest. Urol. 17:16-23, 1979) were grown in 5% charcoal-stripped medium and seeded at a concentration of 10000 cells per well in a 96-well plate. They were transiently transfected with a pSG5-derived plasmid (#216201 from Stratagene, La Jolla, Calif., USA) coding for the human androgen receptor W741L or W741C mutant Mara et al., Cancer Research, 63: 149-153, 2003) and an MMTV-Luciferase reporter plasmid based on pGL4.14 14 (#E6691, Promega Corporation, Madison, Wis., USA). The compound to be tested was added at a concentration range varying from 1×10^−9 to 1×10 M together with 1×10^−10 R1881. After 24 h incubation at 37° C. in a 5% CO2 atmosphere, 100 μl of Steady Glo Lysis and Detection reagent (Steady Glo Luciferase assay system E2550 from Promega Corporation. Madison, Wis., USA) were added. Antagonistic activity was determined by measuring Luciferase activity in a Victor 3 Luminometer (PerkinElmer, Waltham, Mass., USA) using the Steady Glo Luciferase Assay (E2550, Promega). IC50 values were calculated for anti-androgenic activity.

[2] = biological target: T2, human androgen receptor E709Y mutant (Homo sapiens, UniProt P10275, E710Y); test: Cell-based transactivation assay for human androgen receptor mutant E709Y
T2 construct: expressed in transfected cells; host or cells: PC-3 cells, transient transfection with a pSG5-derived plasmid
T2 sequence (P10275 1-920 E710Y): T1 sequence (P10275 1-920 W742L) with E710Y, L742W
Protocol: Cell-Based Transactivation Assay for Human Androgen Receptor Mutant E709Y
PC-3 cells (Kaighn et al., Invest. Urol. 17:16-23, 1979) were grown in 5% charcoal-stripped medium and seeded at a concentration of 10000 cells per well in a 96-well plate. They were transiently transfected with a pSG5-derived plasmid (#216201 from Stratagene, La Jolla, Calif., USA) coding for the human androgen receptor E709Y mutant (Georget et al., Molecular Endocrinology, 20(4): 724-734, 2006) and an MMTV-Luciferase reporter plasmid based on pGL4.14 14 (#E6691, Promega Corporation, Madison, Wis., USA). The compound to be tested was added at a concentration range varying from 1×10^−9 to 1×10^−6 M together with 1×10^−10 R1881. After 24 h incubation at 37° C. in a 5% CO2 atmosphere, 100 μl of Steady Glo Lysis and Detection reagent (Steady Glo Luciferase assay system E2550 from Promega Corporation. Madison, Wis., USA) were added. Antagonistic activity was determined by measuring Luciferase activity in a Victor 3 Luminometer (PerkinElmer, Waltham, Mass., USA) using the Steady Glo Luciferase Assay (E2550, Promega). IC50 values were calculated for anti-androgenic activity.

[3] = biological target: T3, wild-type human androgen receptor (Homo sapiens, UniProt P10275); test: Cell-based transactivation assay for wild-type human androgen receptor (PC-3 cells, MMTV-luciferase reporter)
T3 construct: expressed in transfected cells
T3 sequence (P10275 1-920): T1 sequence (P10275 1-920 W742L) with L742W
Protocol: Cell-Based Transactivation Assay for Wild-Type Human Androgen Receptor
PC-3 cells (Kaighn et al., Invest. Urol. 17:16-23, 1979) stably transfected with the human androgen receptor (Swiss-Prot Acc. No. P10275, Entry Version 159, Sequence Version 2) and a reporter plasmid based on pGL4.14 (#E6691, Promega Corporation, Madison, Wis., USA) containing the MMTV promoter (Cato et al., EMBO J. 6:363-8, 1987) were used. They were grown in 5% charcoal-stripped medium and seeded at a concentration of 1000 cells per well in a 384-well plate. For determination of antagonistic activity, the plate additionally contained the compound to be tested at a concentration range varying from 5.12×10^−12 to 1×10^−5 M. The assay was performed in presence of 1×10^−10 R1881 (also known as methyltrienolone). After overnight incubation at 37° C. in a 5% CO2 atmosphere, 15 μl of Steady Glo Lysis and Detection reagent (Steady Glo Luciferase assay system E2550 from Promega Corporation. Madison, Wis., USA) were added. IC50 was calculated for anti-androgenic activity as well as percentage inhibition in presence of 2 μM compound in comparison to non-stimulated luciferase signal. Agonistic activity was determined using the same concentration range of compound in the absence of R1881 by measuring Luciferase activity as above. EC50 was calculated for androgenic activity. Assay/read plates were used (Polystyrol; 384, NV-white cell culture plates; Perkin Elmer).

VCaP cells = test: Proliferation assay with VCaP cells; format: cell-based; conditions: Homo sapiens, 168 h, R1881 (1×10^−10) stimulated growth, day 7, read-out: Antiproliferative activity VCaP IC50
Protocol: Proliferation Assay with VCaP Cells
VCaP cells ((Korenchuk et al., In Vivo 15: 163-168, 2001)) were seeded at 16 000 cells/well in 96-well plates in DMEM (F0445, Biochrom AG, Berlin, Germany) with phenol red supplemented with 10% charcoal-stripped serum. After 1 day, the cells were treated with R1881 (1×10^−10) and compound (day 0). Cell number was determined by Alamar Blue (DAL1100, Invitrogen, Life Technologies, Lohne, Germany) staining (2.5 h) at day 0 and day 7. Fluorescence was determined in Victor3 (Excitation 530 nm; emission 590 nm). Stimulated growth was defined as the signal measured at day 7 for cells treated only with R1881. Basal level was defined as the signal measured at day 7 for cells grown without R1881.

LNCaP cells = test: Proliferation assay with LNCaP cells; format: cell-based; conditions: Homo sapiens, 168 h, R1881 (1×10^−10) stimulated growth, day 7, read-out: inhibition IC50 (LNCaP)
Protocol: Proliferation Assay with LNCaP Cells
LNCaP cells (Horoszewicz et al., in “Models for Prostate Cancer” (ed. G. P. Murphy), Alan R. Liss, New York 1981, p. 115-132; Horoszewicz et al., Cancer Res. 43:1809-1818, 1983) were seeded at 2000 cells/well in 96-well plates in RPMI (F1235, Biochrom AG, Berlin, Germany) without phenol red supplemented with 5% charcoal-stripped serum. After 3 days, the cells were treated with R1881) (1×10^−10) and compound (day 0). Cell number was determined by Alamar Blue (DAL1100, Invitrogen, Life Technologies, Lohne, Germany) staining (2.5 h) at day 0 and day 7. Fluorescence was determined in Victor3 (Excitation 530 nm; emission 590 nm). Stimulated growth was defined as the signal measured at day 7 for cells treated only with R1881. Basal level was defined as the signal measured at day 7 for cells grown without R1881.

SMILES | IC50 [1] [nM] | IC50 [2] [nM] | EC50 [3] [nM] | IC50 (VCaP cells) [nM] | IC50 (LNCaP cells) [nM]
COc1ccc(CN2C(=S)N(c3ccc(C#N)c(C(F)(F)F)c3)C(=O)C2(C)C)cc1 [Comparative data^4] | 379 | 80.2 | 6810 | 860 | –
CC1(C)C(=O)N(c2ccc(C#N)c(C(F)(F)F)c2)C(=S)N1Cc1cnc(N2CCOCC2)nc1N [Example 6, 4-(3-{[4-Amino-2-(morpholin-4-yl)pyrimidin-5-yl]methyl}-4,4-dimethyl-5-oxo-2-thioxoimidazolidin-1-yl)-2-(trifluoromethyl)benzonitrile] | 92.8 | 19.3 | 5000 | – | –
CN=S1(=O)CCN(c2ccc(CN3C(=S)N(c4ccc(C#N)c(C(F)(F)F)c4)C(=O)C3(C)C)cn2)CC1 [Example 22, 4-[4,4-Dimethyl-3-({6-[1-(methylimino)-1-oxido-1λ^6-thiomorpholin-4-yl]pyridin-3-yl}methyl)-5-oxo-2-thioxoimidazolidin-1-yl]-2-(trifluoromethyl)benzonitrile] | 57.4 | – | > 10000 | – | 135
CC1(C)C(=O)N(c2ccc(C#N)c(C(F)(F)F)c2)C(=S)N1Cc1ccc(N2CCNC2=O)nc1 [Example 25, 4-(4,4-Dimethyl-5-oxo-3-{[6-(2-oxoimidazolidin-1-yl)pyridin-3-yl]methyl}-2-thioxoimidazolidin-1-yl)-2-(trifluoromethyl)benzonitrile] | 246 | – | > 10000 | – | –
CC1(C)C(=O)N(c2ccc(C#N)c(C(F)(F)F)c2)C(=S)N1Cc1ccc(N=[S@](C)(=O)c2ccccc2)nc1 [Example 26, (R)-4-{4,4-Dimethyl-3-[(6-{[methyl(oxido)phenyl-λ^6-sulfanylidene]amino}pyridin-3-yl)methyl]-5-oxo-2-thioxoimidazolidin-1-yl}-2-(trifluoromethyl)benzonitrile] | 211 | – | > 10000 | – | –
CC1(C)C(=O)N(c2ccc(C#N)c(C(F)(F)F)c2)C(=S)N1Cc1ccc(-n2cnnn2)nc1 [Example 31, 4-(4,4-Dimethyl-5-oxo-3-{[6-(1H-tetrazol-1-yl)pyridin-3-yl]methyl}-2-thioxoimidazolidin-1-yl)-2-(trifluoromethyl)benzonitrile] | ≥ 1000 | – | > 10000 | – | –
CC1(C)C(=O)N(c2ccc(C#N)c(C(F)(F)F)c2)C(=S)N1Cc1ccc(-n2cnc(CO)c2)nc1 [Example 34, 4-[3-({6-[4-(Hydroxymethyl)-1H-imidazol-1-yl]pyridin-3-yl}methyl)-4,4-dimethyl-5-oxo-2-thioxoimidazolidin-1-yl]-2-(trifluoromethyl)benzonitrile] | 259 | – | > 10000 | 331 | –
CC1(C)C(=O)N(c2ccc(C#N)c(C(F)(F)F)c2)C(=S)N1Cc1ccc(OCCN2CCNC2=O)nc1 [Example 35, 4-[4,4-Dimethyl-5-oxo-3-({6-[2-(2-oxoimidazolidin-1-yl)ethoxy]pyridin-3-yl}methyl)-2-thioxoimidazolidin-1-yl]-2-(trifluoromethyl)benzonitrile] | 44.6 | – | > 10000 | – | –
CC1(C)C(=O)N(c2ccc(C#N)c(C(F)(F)F)c2)C(=S)N1Cc1ccc(N2CCS(=O)(=NC#N)CC2)nc1 [Example 36, {4-[5-({3-[4-Cyano-3-(trifluoromethyl)phenyl]-5,5-dimethyl-4-oxo-2-thioxoimidazolidin-1-yl}methyl)pyridin-2-yl]-1-oxido-1λ^6,4-thiomorpholin-1-ylidene}cyanamide] | ≥ 1000 | – | > 10000 | 329 | –
Cc1nc(OCC(C)(C)O)ccc1CN1C(=S)N(c2ccc(C#N)c(C(F)(F)F)c2)C(=O)C1(C)C [Example 37, 4-(3-{[6-(2-Hydroxy-2-methylpropoxy)-2-methylpyridin-3-yl]methyl}-4,4-dimethyl-5-oxo-2-thioxoimidazolidin-1-yl)-2-(trifluoromethyl)benzonitrile] | 241 | – | > 10000 | 323 | –
Cc1nnnn1-c1ccc(CN2C(=S)N(c3ccc(C#N)c(C(F)(F)F)c3)C(=O)C2(C)C)cn1 [Example 38, 4-(4,4-Dimethyl-3-{[6-(5-methyl-1H-tetrazol-1-yl)pyridin-3-yl]methyl}-5-oxo-2-thioxoimidazolidin-1-yl)-2-(trifluoromethyl)benzonitrile] | 366 | – | > 10000 | – | –
